From article PMC11359702, “Synthesis and Biochemical Evaluation of Ethanoanthracenes and Related Compounds: Antiproliferative and Pro-Apoptotic Effects in Chronic Lymphocytic Leukemia (CLL)” (Pharmaceuticals, 2024)

Legend:
[1] = system: MOLT-4; test: NCI-60 five-dose assay; type: cell-based, human
[2] = system: breast cancer cell lines; test: NCI-60 five-dose assay, breast cancer cell lines; type: cell-based, human; details: Homo sapiens; range over breast cancer cell lines
Experimental: (§1) A number of our most promising compounds identified through preliminary cell viability testing (23c, 23d, 23f, 23h, 23l, 23m, 23n, 23o, 24f, 24l, 25n and 26n) were selected for NCI drug screening in the 60-cell-line panel. The panel includes nine subcategories based on cancer tissue types, which include leukemia, ovarian, central nervous system, breast, lung, prostate, skin, renal and colon cancer. The compounds were initially assessed in a one-dose assay at a fixed treatment concentration of 10 µM. The compounds selected for further investigation were progressed to a five-dose assay across the concentration ranges of 0.01, 0.1, 1, 10 and 100 µM [72]. The endpoints assessed in the screening protocol were GI50, TGI and LC50 [72].

[3] = system: melanoma cell lines; test: NCI-60 five-dose assay, melanoma cell lines; type: cell-based, human; details: Homo sapiens; range over melanoma cell lines
Experimental: as §1

[4] = system: RPMI-8226; test: NCI-60 five-dose assay; type: cell-based, human
[5] = system: MDA-MB-435; test: NCI-60 five-dose assay; type: cell-based, human; details: Homo sapiens
Experimental: as §1

[6] = system: OVCAR-3; test: NCI-60 five-dose assay; type: cell-based, human; details: Homo sapiens
Experimental: as §1

[7] = system: RXF 393; test: NCI-60 five-dose assay; type: cell-based, human; details: Homo sapiens
Experimental: as §1

[8] = system: DU-145; test: NCI-60 five-dose assay; type: cell-based, human; details: Homo sapiens
Experimental: as §1

[9] = system: HT29; test: NCI-60 five-dose assay; type: cell-based, human
Experimental: as §1

[10] = system: OVCAR-4; test: NCI-60 five-dose assay; type: cell-based, human; details: Homo sapiens
Experimental: as §1

[11] = system: COLO205; test: NCI-60 five-dose assay; type: cell-based, human; details: Homo sapiens, COLO 205
Experimental: as §1

[12] = system: NCI-H552; test: NCI-60 five-dose assay; type: cell-based, human; details: Homo sapiens
Experimental: as §1

[13] = system: UO-31; test: NCI-60 five-dose assay; type: cell-based, human; details: Homo sapiens
Experimental: as §1

[14] = system: OVCAR-5; test: NCI-60 five-dose assay; type: cell-based, human; details: Homo sapiens
Experimental: as §1

[15] = system: 786-0; test: NCI-60 five-dose assay; type: cell-based, human; details: Homo sapiens
Experimental: as §1

[16] = system: EKVX; test: NCI-60 five-dose assay; type: cell-based, human; details: Homo sapiens
Experimental: as §1

[17] = system: SW-620; test: NCI-60 five-dose assay; type: cell-based, human; details: Homo sapiens
Experimental: as §1

[18] = system: A498; test: NCI-60 five-dose assay; type: cell-based, human; details: Homo sapiens
Experimental: as §1

[19] = system: SK-MEL-5; test: NCI-60 five-dose assay; type: cell-based, human; details: Homo sapiens
Experimental: as §1

[20] = system: U251; test: NCI-60 five-dose assay; type: cell-based, human; details: Homo sapiens, U-251
Experimental: as §1

[21] = system: SK-MEL-28; test: NCI-60 five-dose assay; type: cell-based, human; details: Homo sapiens
Experimental: as §1

[22] = system: BT-549; test: NCI-60 five-dose assay; type: cell-based, human; details: Homo sapiens
Experimental: as §1

[23] = system: KM12; test: NCI-60 five-dose assay; type: cell-based, human; details: Homo sapiens
Experimental: as §1

[24] = system: MCF-7; test: NCI-60 five-dose assay; type: cell-based, human; details: Homo sapiens, MCF7
Experimental: as §1

[25] = system: UACC-257; test: NCI-60 five-dose assay; type: cell-based, human; details: Homo sapiens
Experimental: as §1

[26] = system: HOP-62; test: NCI-60 five-dose assay; type: cell-based, human; details: Homo sapiens
Experimental: as §1

[27] = system: ACHN; test: NCI-60 five-dose assay; type: cell-based, human; details: Homo sapiens
Experimental: as §1

[28] = system: HCT-116; test: NCI-60 five-dose assay; type: cell-based, human; details: Homo sapiens
Experimental: as §1

[29] = system: MALME-3M; test: NCI-60 five-dose assay; type: cell-based, human; details: Homo sapiens, Malme-3M
Experimental: as §1

[30] = system: UACC-62; test: NCI-60 five-dose assay; type: cell-based, human; details: Homo sapiens
Experimental: as §1

[31] = system: SNB-19; test: NCI-60 five-dose assay; type: cell-based, human; details: Homo sapiens
Experimental: as §1

[32] = system: SK-MEL-2; test: NCI-60 five-dose assay; type: cell-based, human; details: Homo sapiens
Experimental: as §1

[33] = system: CAKI-1; test: NCI-60 five-dose assay; type: cell-based, human; details: Homo sapiens
Experimental: as §1

[34] = system: NCI/ADR-RES; test: NCI-60 five-dose assay; type: cell-based, human; details: Homo sapiens
Experimental: as §1

[35] = system: M14; test: NCI-60 five-dose assay; type: cell-based, human; details: Homo sapiens
Experimental: as §1

[36] = system: TK-10; test: NCI-60 five-dose assay; type: cell-based, human; details: Homo sapiens
Experimental: as §1

[37] = system: PC-3; test: NCI-60 five-dose assay; type: cell-based, human; details: Homo sapiens
Experimental: as §1

[38] = system: A549/ATCC; test: NCI-60 five-dose assay; type: cell-based, human; details: Homo sapiens
Experimental: as §1

[39] = system: MDA-MB-231/ATCC; test: NCI-60 five-dose assay; type: cell-based, human; details: Homo sapiens
Experimental: as §1

[40] = system: SF-268; test: NCI-60 five-dose assay; type: cell-based, human; details: Homo sapiens
Experimental: as §1

[41] = system: OVCAR-8; test: NCI-60 five-dose assay; type: cell-based, human; details: Homo sapiens
Experimental: as §1

[42] = system: HS 578T; test: NCI-60 five-dose assay; type: cell-based, human; details: Homo sapiens
Experimental: as §1

[43] = system: HCT-2998; test: NCI-60 five-dose assay; type: cell-based, human; details: Homo sapiens
Experimental: as §1

[44] = system: SN12C; test: NCI-60 five-dose assay; type: cell-based, human; details: Homo sapiens
Experimental: as §1

[45] = system: HCT-15; test: NCI-60 five-dose assay; type: cell-based, human; details: Homo sapiens
Experimental: as §1

[46] = system: NCI-H460; test: NCI-60 five-dose assay; type: cell-based, human; details: Homo sapiens
Experimental: as §1

[47] = system: SK-OV-3; test: NCI-60 five-dose assay; type: cell-based, human; details: Homo sapiens
Experimental: as §1

[48] = system: IGROV1; test: NCI-60 five-dose assay; type: cell-based, human; details: Homo sapiens, IGROV-1
Experimental: as §1

[49] = system: PGA-1 cells; test: alamarBlue cell viability assay; details: Homo sapiens, 24 h

`O=C(C=CC12c3ccccc3C(c3ccccc31)C1C(=O)N(c3ccc(Cl)cc3)C(=O)C12)c1ccccn1` (stereo not drawn) [Compound 25n, (E)-13-(4-Chlorophenyl)-9-(3-oxo-3-(pyridin-2-yl)prop-1-en-1-yl)-9,10-dihydro-9,10-[3,4]epipyrroloanthracene-12,14-dione] was tested. Which GI50 ([1]; Homo sapiens, MOLT-4, MOLT-4) did it give?
The GI50 was 320 nM.

And the GI50 ([1]; MOLT-4)?
Its GI50 is 366 nM.

What about the GI50 [2] of the same molecule?
Its GI50 is 295 to 627 nM.

And the GI50 [3]?
Its GI50 is 194 to 1080 nM.

And the GI50 ([4]; Homo sapiens, RPMI-8226, RPMI-8226)?
Its GI50 is 250 nM.

And the GI50 ([4]; RPMI-8226)?
The GI50 was 252 nM.

And the GI50 [5]?
Its GI50 is 298 nM.

What about the GI50 [6] of the same molecule?
The GI50 was 222 nM.

And the GI50 [7]?
Its GI50 is 222 nM.

And the GI50 [8]?
The GI50 was 410 nM.

And the GI50 ([9]; Homo sapiens, HT-29, HT29)?
The GI50 was 335 nM.

What about the IC50 ([9]; chemoresistant HT-29 human colorectal adenocarcinoma cell line) of the same molecule?
The IC50 was 335 nM.

What about the GI50 [10] of the same molecule?
Its GI50 is 764 nM.

What about the GI50 [11] of the same molecule?
Its GI50 is 1160 nM.

What about the GI50 [12] of the same molecule?
Its GI50 is 331 nM.

What about the GI50 [13] of the same molecule?
Its GI50 is 208 nM.

What about the GI50 [14] of the same molecule?
The GI50 was 568 nM.

And the GI50 [15]?
The GI50 was 216 nM.

And the GI50 [16]?
Its GI50 is 491 nM.

What about the GI50 [17] of the same molecule?
Its GI50 is 299 nM.

And the GI50 [18]?
Its GI50 is 539 nM.

And the GI50 [19]?
The GI50 was 1080 nM.

And the GI50 [20]?
Its GI50 is 358 nM.

And the GI50 [21]?
Its GI50 is 455 nM.

And the GI50 [22]?
The GI50 was 295 nM.

What about the GI50 [23] of the same molecule?
The GI50 was 344 nM.

What about the GI50 [24] of the same molecule?
Its GI50 is 326 nM.

And the GI50 [25]?
The GI50 was 496 nM.

And the GI50 [26]?
Its GI50 is 587 nM.

And the GI50 [27]?
Its GI50 is 299 nM.

And the GI50 [28]?
Its GI50 is 212 nM.

And the GI50 [29]?
The GI50 was 316 nM.

What about the GI50 [30] of the same molecule?
The GI50 was 400 nM.

And the GI50 [31]?
Its GI50 is 425 nM.

What about the GI50 [32] of the same molecule?
Its GI50 is 670 nM.

And the GI50 [33]?
Its GI50 is 1070 nM.

What about the GI50 [34] of the same molecule?
The GI50 was 356 nM.

What about the GI50 [35] of the same molecule?
Its GI50 is 344 nM.

What about the GI50 [36] of the same molecule?
The GI50 was 1460 nM.

And the GI50 [37]?
Its GI50 is 436 nM.

And the GI50 [38]?
The GI50 was 390 nM.

What about the GI50 [39] of the same molecule?
Its GI50 is 463 nM.

And the GI50 [40]?
The GI50 was 699 nM.

And the GI50 [41]?
The GI50 was 409 nM.

And the GI50 [42]?
Its GI50 is 458 nM.

And the GI50 [43]?
Its GI50 is 335 nM.

And the GI50 [44]?
The GI50 was 415 nM.

And the GI50 [45]?
Its GI50 is 213 nM.

What about the GI50 [46] of the same molecule?
The GI50 was 241 nM.

And the GI50 [47]?
Its GI50 is 3300 nM.

What about the GI50 [48] of the same molecule?
Its GI50 is 236 nM.

And the IC50 ([49]; read-out: PGA-1 IC50)?
Its IC50 is 870 nM.

And the viability at 1 µM ([49]; read-out: cell viability)?
The viability at 1 µM was 25%.

And the viability at 10 µM ([49]; read-out: cell viability)?
Its viability at 10 µM is 7%.
